Test results: article PMC5011342, “A high throughput drug screening assay to identify compounds that promote oligodendrocyte differentiation using acutely dissociated and purified oligodendrocyte precursor cells” (BMC Research Notes, 2016)
Several values for one entry are separate records, joined by “and”; a condition that tells them apart may be missing. Equal entries are not always repeated. Where two headings read alike, the source gives them in different places.

Test system: expanded OPCs
Assay: cells
Conditions: for viability at 0.1 µM / viability at 1 µM / viability at 10 µM: Rattus norvegicus, 72 h
Protocol: Having established a consistent assay for measuring OL differentiation in vitro, the next step was to utilize this assay to assess the ability of a wide array of compounds to promote OL differentiation. Prior to library screening, we first established the maximum non-toxic dose of each compound in the library. […] Therefore, we added each compound in the NIH clinical collection (NCC) library to OPCs at 10, 1, and 0.1 µM concentrations. Three days later, we assessed viability of the treated cells by measuring AlamarBlue fluorescence, a measure of cell viability (see “Methods” section). […] Appropriately, we established three sets of screening concentrations for library compounds: non-toxic compounds were tested at 10 and 2 µM, slightly toxic compounds (only toxic at 10 µM) were tested at 2 and 0.4 µM, and very toxic compounds were tested at 0.4 and 0.08 µM.
OPCs were expanded in vitro by seeding into PDL-coated tissue culture flasks at 1000–2000 cells/cm^2 in differentiation media supplemented with 10 ng/ml PDGF-AA. Proliferating OPCs were fed every 2–3 days and supplemented with 2–3× concentration of PDGF as needed to prevent OPC differentiation. After 6–7 days of proliferation, OPCs were harvested by trypsinization, plated into PDL-coated 96-well Falcon plates and centrifuged at 200×g to facilitate cell attachment, survival, and even distribution of cells. Expanded OPCs were seeded in differentiation media at 10,000 cells/well and incubated for 2 h at 37 °C, 10 % CO2 prior to addition of compounds. The NCC library was diluted and added to cells at 10, 1, and 0.1 µM; each concentration was tested in quadruplicate. As a positive control for the induction of toxicity, 5 ng/ml tunicamycin was added to 8 wells in each plate. Three days later, a 1:10 dilution of alamarBlue® (AB) was added to each well and cells were incubated 4 h at 37 °C, 10 % CO2. AB fluorescence was measured using a PerkinElmer Victor II fluorescence microplate reader (PerkinElmer, Waltham, MA) with 560 nm excitation/590 nm emission filters. For library screening, the highest concentration of each compound was adjusted to a minimally toxic concentration based on this toxicity data. Compounds were additionally tested at a second concentration that was 1/5th of the top concentration. The final concentration of DMSO in each well was 0.1 %.

[1] = alamarBlue viability of expanded OPCs, compound at 0.1 µM, relative to DMSO control
[2] = alamarBlue viability of expanded OPCs, compound at 1 µM, relative to DMSO control
[3] = alamarBlue viability of expanded OPCs, compound at 10 µM, relative to DMSO control
[4] = read-out: 0.1 µM (% DMSO), alamarBlue viability of expanded OPCs, compound at 0.1 µM, sheet All Tox data
[5] = read-out: 1 µM (% DMSO), alamarBlue viability of expanded OPCs, compound at 1 µM, sheet All Tox data
[6] = read-out: 10 µM (% DMSO), alamarBlue viability of expanded OPCs, compound at 10 µM, sheet All Tox data
[7] = read-out: 0.1 µM (% DMSO), alamarBlue viability, NCC library compound at 0.1 µM, sheet "All Tox data"
[8] = read-out: 1 µM (% DMSO), alamarBlue viability, NCC library compound at 1 µM, sheet "All Tox data"
[9] = read-out: 10 µM (% DMSO), alamarBlue viability, NCC library compound at 10 µM, sheet "All Tox data"

Molecule: Cc1ccccc1C(OCCN(C)C)c1ccccc1 (stereo not drawn) [Orphenadrine]
- 0.1 µM (% DMSO) [1]: 86.1 % DMSO and 95.1 % DMSO
- 1 µM (% DMSO) [2]: 67.2 % DMSO and 74.3 % DMSO
- 10 µM (% DMSO) [3]: 47.8 % DMSO and 50.8 % DMSO

Molecule: COc1cc([C@@H]2c3cc4c(cc3[C@H](O)[C@H]3COC(=O)[C@H]23)OCO4)cc(OC)c1OC [Podophyllotoxin]
- 0.1 µM (% DMSO) [1]: 14.8 % DMSO
- 1 µM (% DMSO) [2]: 10.6 % DMSO
- 10 µM (% DMSO) [3]: 9.1 % DMSO

Molecule: CCCN[C@H]1CCc2nc(N)sc2C1 [Pramipexole]
- viability at 0.1 µM [4]: 88.8%
- viability at 1 µM [5]: 92.5%
- viability at 10 µM [6]: 96%

Molecule: COc1cc2nc(N3CCN(C(=O)c4ccco4)CC3)nc(N)c2cc1OC [Prazosin]
- viability at 0.1 µM [4]: 80.9%
- viability at 1 µM [5]: 87.6%
- viability at 10 µM [6]: 13.1%

Molecule: CC(C)CC(N(C)C)C1(c2ccc(Cl)cc2)CCC1 (stereo not drawn) [Sibutramine]
- viability at 0.1 µM [7]: 88.3%
- viability at 1 µM [8]: 84%
- viability at 10 µM [9]: 84.4%

Molecule: Cc1cc(NS(=O)(=O)c2ccc(N)cc2)no1 [Sulfamethoxazole]
- viability at 0.1 µM [7]: 90.6%
- viability at 1 µM [8]: 96.3%
- viability at 10 µM [9]: 96.5%

Molecule: C[C@]12CC[C@H]3[C@@H](CCC4=CC(=O)CC[C@@]43C)[C@@H]1CC[C@@H]2O [Testosterone]
- viability at 0.1 µM (read-out: 0.1 µM (% DMSO)): 88.4%
- viability at 1 µM (read-out: 1 µM (% DMSO)): 87.4%
- viability at 10 µM (read-out: 10 µM (% DMSO)): 86.2%
- 0.1 µM (% DMSO) (rat): 87.3 % DMSO
- 1 µM (% DMSO) (rat): 87.6 % DMSO
- 10 µM (% DMSO) (rat): 84.8 % DMSO

Molecule: Clc1ccccc1CN1CCc2sccc2C1 [Ticlopidine]
- viability at 0.1 µM [4]: 107%
- viability at 1 µM [5]: 103%
- viability at 10 µM [6]: 90.3%

Molecule: COc1ccc(CCN(C)CCCC(C#N)(c2ccc(OC)c(OC)c2)C(C)C)cc1OC (stereo not drawn) [Verapamil]
- viability at 0.1 µM (read-out: 0.1 µM (% DMSO)): 84.5%
- viability at 1 µM (read-out: 1 µM (% DMSO)): 92.8%
- viability at 10 µM (read-out: 10 µM (% DMSO)): 43%

Molecule: CC[C@]1(O)C[C@H]2CN(CCc3c([nH]c4ccccc34)[C@@](C(=O)OC)(c3cc4c(cc3OC)N(C=O)[C@H]3[C@@](O)(C(=O)OC)[C@H](OC(C)=O)[C@]5(CC)C=CCN6CC[C@]43[C@@H]65)C2)C1 [Vincristine]
- viability at 0.1 µM [7]: 17.4%
- viability at 1 µM [8]: 11.1%
- viability at 10 µM [9]: 9%

Molecule: Medroxyprogesterone
- 0.1 µM (% DMSO) (alamarBlue viability, NCC library compound at 0.1 µM, sheet "All Tox data"): 117.3 % DMSO
- 1 µM (% DMSO) (alamarBlue viability, NCC library compound at 1 µM, sheet "All Tox data"): 126.7 % DMSO
- 10 µM (% DMSO) (alamarBlue viability, NCC library compound at 10 µM, sheet "All Tox data"): 141.4 % DMSO
